Results as given in ChEMBL document CHEMBL2375325, “Anti-neuroinflammatory properties of synthetic cryptolepine in human neuroblastoma cells: possible involvement of NF-κB and p38 MAPK inhibition” (Eur J Med Chem, 2013).
Calls of active or inactive are those of the source. No cut-off for these calls is given here.

Experiments:
SK-N-SH [1] = assay: Antiinflammatory activity against human SK-N-SH cells assessed as inhibition of IL1beta-induced IL6 production at 2.5 to 20 uM preincubated for 30 mins prior to IL1beta-stimulation measured after 24 hrs by ELISA; type: functional, cell-based
[2] = biological target: Transcription factor p65 (Homo sapiens) (UniProt Q04206); assay: Inhibition of IL1beta-induced NFkappaB p65 nuclear translocation in human SK-N-SH cells after 15 mins by ELISA; type: cell-based
SK-N-SH [3] = assay: Inhibition of microsomal PGES-1 gene expression in IL1beta-stimulated human SK-N-SH cells at 5 uM preincubated for 30 mins prior to IL1beta-stimulation measured after 4 hrs by qPCR analysis; type: functional, cell-based
SK-N-SH [4] = assay: Antiinflammatory activity against human SK-N-SH cells assessed as inhibition of IL1beta-induced TNFalpha production at 2.5 to 20 uM preincubated for 30 mins prior to IL1beta-stimulation measured after 24 hrs by ELISA; type: functional, cell-based
SK-N-SH [5] = assay: Cytotoxicity against human SK-N-SH cells after 24 hrs by ATP assay; type: cell-based
SK-N-SH [6] = assay: Inhibition of microsomal PGES-1 gene expression in IL1beta-stimulated human SK-N-SH cells at 2.5 uM preincubated for 30 mins prior to IL1beta-stimulation measured after 4 hrs by qPCR analysis; type: functional, cell-based
SK-N-SH [7] = assay: Inhibition of COX2 protein expression in IL1beta-stimulated human SK-N-SH cells at 5 to 20 uM after 24 hrs by Western blotting analysis; type: functional, cell-based
SK-N-SH [8] = assay: Inhibition of COX2 protein expression in IL1beta-stimulated human SK-N-SH cells at 2.5 uM after 24 hrs by Western blotting analysis relative to IL1beta-treated control; type: functional, cell-based
SK-N-SH [9] = assay: Inhibition of microsomal PGES-1 protein expression in IL1beta-stimulated human SK-N-SH cells at 2.5 uM after 24 hrs by Western blotting analysis; type: functional, cell-based
[10] = biological target: T1, MAP kinase p38 (Homo sapiens) (UniProt O15264+Q15759+Q16539+P53778); assay: Inhibition of p38 MAPK in human SK-N-SH cells assessed as inhibition of IL1beta-induced MAPKAPK2 phosphorylation preincubated for 30 mins prior to IL1beta-stimulation measured after 1 hr by Western blotting analysis; type: cell-based
SK-N-SH [11] = assay: Inhibition of microsomal PGES-1 gene expression in IL1beta-stimulated human SK-N-SH cells at 10 to 20 uM preincubated for 30 mins prior to IL1beta-stimulation measured after 4 hrs by qPCR analysis; type: functional, cell-based
SK-N-SH [12] = assay: Inhibition of COX2 gene expression in IL1beta-stimulated human SK-N-SH cells at 10 to 20 uM preincubated for 30 mins prior to IL1beta-stimulation measured after 4 hrs by qPCR analysis; type: functional, cell-based
SK-N-SH [13] = assay: Inhibition of IL1beta-induced IkappaB phosphorylation in human SK-N-SH cells at 2.5 to 20 uM after 15 mins by ELISA; type: cell-based
SK-N-SH [14] = assay: Antiinflammatory activity against human SK-N-SH cells assessed as inhibition of IL1beta-induced PGE2 production preincubated for 30 mins prior to IL1beta-stimulation measured after 24 hrs by enzyme immunoassay; type: functional, cell-based
SK-N-SH [15] = assay: Inhibition of microsomal PGES-1 protein expression in IL1beta-stimulated human SK-N-SH cells at 5 uM after 24 hrs by Western blotting analysis; type: functional, cell-based
[16] = biological target: T1, MAP kinase p38 (Homo sapiens); assay: Inhibition of IL1beta-induced p38 MAPK phosphorylation in human SK-N-SH cells at 10 to 20 uM preincubated for 30 mins prior to IL1beta-stimulation measured after 1 hr by Western blotting analysis; type: cell-based
SK-N-SH [17] = assay: Inhibition of microsomal PGES-1 protein expression in IL1beta-stimulated human SK-N-SH cells at 10 to 20 uM after 24 hrs by Western blotting analysis; type: functional, cell-based

Chain of Transcription factor p65 (Homo sapiens) (Q04206 whole entry): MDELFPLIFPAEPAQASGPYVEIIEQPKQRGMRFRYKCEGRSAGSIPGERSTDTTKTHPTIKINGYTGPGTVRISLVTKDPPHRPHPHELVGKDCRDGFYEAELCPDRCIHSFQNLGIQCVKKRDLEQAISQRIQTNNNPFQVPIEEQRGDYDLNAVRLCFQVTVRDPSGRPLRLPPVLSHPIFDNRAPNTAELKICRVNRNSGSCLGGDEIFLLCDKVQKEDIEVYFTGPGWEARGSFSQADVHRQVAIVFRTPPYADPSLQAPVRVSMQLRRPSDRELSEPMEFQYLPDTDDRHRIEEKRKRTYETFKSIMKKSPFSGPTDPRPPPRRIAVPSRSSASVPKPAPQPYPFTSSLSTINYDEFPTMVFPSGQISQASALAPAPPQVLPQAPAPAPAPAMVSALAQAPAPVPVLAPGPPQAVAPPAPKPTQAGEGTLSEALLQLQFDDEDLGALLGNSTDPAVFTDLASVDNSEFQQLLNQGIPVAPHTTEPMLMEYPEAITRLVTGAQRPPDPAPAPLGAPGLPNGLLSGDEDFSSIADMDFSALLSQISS

For `C[n+]1c2ccccc2cc2[n-]c3ccccc3c21.Cl` [CRYPTOLEPINE HYDROCHLORIDE], the Activity (SK-N-SH [1]) was “Active”, the inhibition [2] was “Dose-dependent effect” and the inhibition (SK-N-SH [3]) was “Active”. The Activity (SK-N-SH [4]) was “Active”, the Activity (SK-N-SH [5]) was “Non-toxic” and the inhibition (SK-N-SH [6]) was “inactive”. For the same compound, the inhibition (SK-N-SH [7]) was “Active”, the inhibition (SK-N-SH [8]) was “inactive” and the inhibition (SK-N-SH [9]) was “inactive”. For the same compound, the inhibition [10] was “Dose-dependent effect”, the inhibition (SK-N-SH [11]) was “Active” and the inhibition (SK-N-SH [12]) was “Active”. For the same compound, the inhibition (SK-N-SH [13]) was “inactive”, the Activity (SK-N-SH [14]) was “Dose-dependent effect” and the inhibition (SK-N-SH [15]) was “inactive”. The inhibition [16] was “Active” and the inhibition (SK-N-SH [17]) was “Active”.
